# Data from patent US20100029654A1, “CARDIOVASCULAR COMPOSITIONS AND USE OF THE SAME FOR THE TREATMENT OF ALZHEIMER'S DISEASE” (MOUNT SINAI SCHOOL OF MEDICINE, priority 2006, published 2010).
# Structures can show the parent of a compound that is named as a salt. Where two headings read alike, the source gives them in different places.
# Columns and labels:
# [1] = tested on: primary cortico-hippocampal neuron cultures; assay: MTT in primary screening
# Aβ1-40 = Aβ1-40 content in conditioned medium of primary cortico-hippocampal neuron cultures from Tg2576 mice (ELISA; primary and secondary dose-response screening); assay type: cell-based, mouse; details: for Ab1-40 (% of ctl) / activity at 100 µM: drug 100 μM; for reduced Aβ1-40: <85% of ctl; for activity at 100 µM: Mus musculus, Neuron, 24 h, read-out: Ab1-40 (% of ctl)
# How it was run: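 Primary cortico-hippocampal neurons from embryonic Tg2576 mice were plated at 1.0×10^5 cells per well on poly-D-lysine-coated 96-well plates in Neurobasal with 2% B27, 0.5 mM L-glutamine and 1% penicillin-streptomycin. Cultures received drug in 1% DMSO, and Aβ1-40 in the conditioned medium was measured by BioSource ELISA 24 hours after treatment, relative to vehicle controls.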
# [2] = tested on: primary cortico-hippocampal neuron cultures; assay: lactate dehydrogenase (LDH) activity assay in parallel neuron cultures
# Aβ1-42 = Aβ1-42 content in conditioned medium of primary cortico-hippocampal neuron cultures from Tg2576 mice (ELISA; primary and secondary dose-response screening); assay type: cell-based, mouse; details: for Ab1-42 (% of ctl) / activity at 100 µM: drug 100 μM; for reducing Aβ1-42: <85% of ctl; for activity at 100 µM: Mus musculus, Neuron, 24 h, read-out: Ab1-42 (% of ctl)
# How it was run: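 Primary cortico-hippocampal neurons from embryonic Tg2576 mouse brain were seeded on poly-D-lysine-coated 96-well plates at 1.0×10^5 cells per well in serum-free Neurobasal medium with 2% B27, 0.5 mM L-glutamine and 1% penicillin-streptomycin. For primary screening, duplicate wells received 100 μM drug (1% DMSO final). Vehicle-treated cultures served as controls, and Aβ1-42 in conditioned medium was measured by commercial ELISA.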
# [3] = Primary Screening, table sorted by Aβ1-40
# [4] = primary screening, table sorted by Aβ1-42
# [5] = primary screening, Tg2576 neuron cultures, table sorted by Aβ1-42
Structure (SMILES),"MTT (% of ctl) [1, 3]","MTT (% of ctl) [1, 4]",Ab1-40 (% of ctl) (Aβ1-40; [3]),reduced Aβ1-40 (Aβ1-40; primary screening),Ab1-40 (% of ctl) (Aβ1-40; [5]),"LDH (% of ctl) [2, 3]","LDH (% of ctl) [2, 4]",Ab1-42 (% of ctl) (Aβ1-42; [3]),reducing Aβ1-42 (Aβ1-42; primary screening),Ab1-42 (% of ctl) (Aβ1-42; [5]),activity at 100 µM (Aβ1-40; [3]) [%],activity at 100 µM (Aβ1-40; [5]) [%],activity at 100 µM (Aβ1-42; [3]) [%],activity at 100 µM (Aβ1-42; [5]) [%]
CCOc1nc2cccc(C(=O)OC(C)OC(=O)OC3CCCCC3)c2n1Cc1ccc(-c2ccccc2-c2nn[nH]n2)cc1 (centres unmarked) [Candesartan Cilextil],41.2 % of ctl,41.2 % of ctl,9.3 % of ctl,reduced Aβ1-40,9.3 % of ctl,227.6 % of ctl,227.6 % of ctl,18.1 % of ctl,useful in reducing Aβ1-42,18.1 % of ctl,–,–,–,–
CC(C)c1nc(N(C)S(C)(=O)=O)nc(-c2ccc(F)cc2)c1/C=C/[C@@H](O)C[C@@H](O)CC(=O)O [Rosuvastatin],103.8 % of ctl,103.8 % of ctl,–,reduced Aβ1-40,–,298.7 % of ctl,298.7 % of ctl,–,useful in reducing Aβ1-42,–,83.6,83.6,65.6,65.6
CCOC(=O)[N-]c1cn(N2CCOCC2)n[o+]1 [Molsidomine],15.0 % of ctl,15.0 % of ctl,–,–,–,1127.4 % of ctl,1127.4 % of ctl,–,–,–,118,118,121,121
COc1cc2nc(N(C)CCCNC(=O)C3CCCO3)nc(N)c2cc1OC (centres unmarked) [Alfluzosin],91.8 % of ctl,91.8 % of ctl,122.7 % of ctl,–,122.7 % of ctl,95.4 % of ctl,95.4 % of ctl,66.9 % of ctl,useful in reducing Aβ1-42,66.9 % of ctl,–,–,–,–
CC(=O)Nc1ccc(OCC(O)CNC(C)C)cc1 (centres unmarked) [Practolol],101.3 % of ctl,101.3 % of ctl,–,–,–,108.9 % of ctl,108.9 % of ctl,–,–,–,99.7,99.7,99.9,99.9
CCOC(=O)C(C)(C)Oc1ccc(Cl)cc1 [Clofibrate],97.9 % of ctl,97.9 % of ctl,–,–,–,110.5 % of ctl,110.5 % of ctl,–,–,–,90.9,90.9,92.5,92.5
CC(=O)CCCCn1c(=O)c2c(ncn2C)n(C)c1=O [Pentoxifylline],91.1 % of ctl,91.1 % of ctl,–,–,–,132.4 % of ctl,132.4 % of ctl,–,–,–,97.1,97.1,109,109
c1ccc(CC2=NCCN2)cc1 [Tolazoline Hydrochloride],97.5 % of ctl,97.5 % of ctl,–,–,–,112.5 % of ctl,112.5 % of ctl,–,–,–,90.8,90.8,99.6,99.6
CCC(C)(C)C(=O)O[C@H]1C[C@@H](C)C=C2C=C[C@H](C)[C@H](CC[C@@H]3C[C@@H](O)CC(=O)O3)[C@H]21 [Simvastatin],93.4 % of ctl,93.4 % of ctl,–,–,–,129.9 % of ctl,129.9 % of ctl,–,–,–,28,28,122,122
